Among the data in US20240368156A1, “2-AZABICYCLO[2.2.1]HEPTANE KRAS INHIBITORS” (INCYTE CORPORATION, priority 2023, published 2024) are IC50 values, retold here.

What is called IC50 is the concentration needed to halve the response being measured.

Bounds are passed on as bounds.

Assay [1] addresses KRAS G12D (Homo sapiens, UniProt P01116, G12D). Description: GDP-GTP exchange assay (bodipy-GDP/GppNHp, SOS1), KRAS G12D. The format is biochemical. The settings on record: 2.5 nM bodipy-loaded KRAS G12D, 4 h pre-incubation, 2 h reaction with GppNHp and SOS1; for certain compounds the most potent isomer is quoted; read-out: KRAS_G12D exchange assay IC50. As for the experimental part:
(§1) The inhibitor potency of the exemplified compounds was determined in a fluorescence based guanine nucleotide exchange assay, which measures the exchange of bodipy-GDP (fluorescently labeled GDP) for GppNHp (Non-hydrolyzable GTP analog) to generate the active state of KRAS in the presence of SOS1 (guanine nucleotide exchange factor). Inhibitors were serially diluted in DMSO and a volume of 0.1 μL was transferred to the wells of a black low volume 384-well plate. 5 µL/well volume of bodipy-loaded KRAS G12D diluted to 2.5 nM in assay buffer (25 mM Hepes pH 7.5, 50 mM NaCl, 10 mM MgCl2 and 0.01% Brij-35) was added to the plate and pre-incubated with inhibitor for 4 h at r.t. Appropriate controls (enzyme with no inhibitor or with a G12D inhibitor) were included on the plate. The exchange was initiated by the addition of a 5 μL/well volume containing 1 mM GppNHp and 300 nM SOS1 in assay buffer. The 10 μL/well reaction concentration of the bodipy-loaded KRAS G12D, GppNHp, and SOS1 were 2.5 nM, 500 μM, and 150 nM, respectively. The reaction plates were incubated at r.t. for 2 h, a time estimated for complete GDP-GTP exchange in the absence of inhibitor. For the KRAS G12V mutant, similar guanine nucleotide exchange assays were used with 2.5 nM as final concentration for the bodipy loaded KRAS proteins and 3 h incubation after adding GppNHp-SOS1 mixture. A cyclic peptide described to selectively bind G12D mutant (Sakamoto et al., BBRC 484.3 (2017), 605-611) or internal compounds with confirmed binding were used as positive controls in the assay plates. Fluorescence intensities were measured on a PheraStar plate reader instrument (BMG Labtech) with excitation at 485 nm and emission at 520 nm.
(§2) Either GraphPad prism or Genedata Screener SmartFit was used to analyze the data. The IC50 values were derived by fitting the data to a four parameter logistic equation producing a sigmoidal dose-response curve with a variable Hill coefficient.
(§3) The symbol “†” indicates IC50≤100 nM, “††” indicates IC50>100 nM but ≤1 μM; and “†††” indicates IC50 is >1 μM but ≤5 μM, “††††” indicates IC50 is >5 µM but ≤10 μM. “NA” indicates IC50 not available.

Assay [2] concerns the target KRAS G12V (Homo sapiens, UniProt P01116, G12V). Description: GDP-GTP exchange assay (bodipy-GDP/GppNHp, SOS1), KRAS G12V. The format is biochemical. The conditions noted are these: 2.5 nM bodipy-loaded KRAS G12V, 3 h incubation after adding GppNHp-SOS1; for certain compounds the most potent isomer is quoted; read-out: KRAS_G12V exchange assay IC50. Here is the method:
as §1, §2, §3

KRAS G12V, sequence (P01116 1-188 isoform P01116-2 G12V): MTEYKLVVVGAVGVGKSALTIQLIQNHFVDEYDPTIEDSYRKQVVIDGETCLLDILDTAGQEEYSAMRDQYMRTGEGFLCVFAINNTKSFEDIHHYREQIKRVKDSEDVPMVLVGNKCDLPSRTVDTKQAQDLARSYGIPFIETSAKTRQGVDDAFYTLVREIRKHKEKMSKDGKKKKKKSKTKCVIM
KRAS G12D, sequence (P01116 1-188 isoform P01116-2 G12D): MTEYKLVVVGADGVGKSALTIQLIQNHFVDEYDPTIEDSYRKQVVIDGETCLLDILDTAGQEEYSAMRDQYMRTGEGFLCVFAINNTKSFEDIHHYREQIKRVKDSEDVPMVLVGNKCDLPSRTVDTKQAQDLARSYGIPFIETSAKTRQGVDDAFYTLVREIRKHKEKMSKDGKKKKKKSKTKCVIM

For `Cc1nc2c(F)c(-c3cccc(Cl)c3Cl)c(CCC#N)cc2c2c1cc([C@H]1[C@H]3C[C@H](C[C@@H]3C)N1C(=O)C1CC1)n2C1[C@H]2CN[C@@H]1C2` (stereo partly drawn) [Example 19, 3-(1-((1R,4R)-2-azabicyclo[2.1.1]hexan-5-yl)-2-((1S,3R,4S,5S)-2-(cyclopropanecarbonyl)-5-methyl-2-azabicyclo[2.2.1]heptan-3-yl)-7-(2,3-dichlorophenyl)-6-fluoro-4-methyl-1H-pyrrolo[3,2-c]quinolin-8-yl)propanenitrile], the IC50 in assay [1] and in assay [2] was ≤ 100 nM each time.
On to `C[C@@H](O)c1nc2c(F)c(-c3cccc(Cl)c3Cl)c(CCC#N)cc2c2c1cc([C@H]1[C@H]3C[C@H](C[C@@H]3OC(F)F)N1C(=O)C1(F)CC1)n2[C@H]1[C@H]2CN[C@@H]1C2` (single isomer, unassigned) [Example 37], for which the IC50 in assay [1] and in assay [2] was ≤ 100 nM each time.
Consider `Cc1nc2c(F)c(-c3cccc(Cl)c3Cl)c(CCC#N)cc2c2c1cc([C@H]1[C@H]3C[C@H](C[C@H]3C)N1C(=O)C1CC1)n2C1[C@H]2CN[C@@H]1C2` (stereo partly drawn) [Example 18, 3-(1-((1R,4R)-2-azabicyclo[2.1.1]hexan-5-yl)-2-((1S,3R,4S,5R)-2-(cyclopropanecarbonyl)-5-methyl-2-azabicyclo[2.2.1]heptan-3-yl)-7-(2,3-dichlorophenyl)-6-fluoro-4-methyl-1H-pyrrolo[3,2-c]quinolin-8-yl)propanenitrile], for which the IC50 in assay [1] and in assay [2] was ≤ 100 nM each time.
For the molecule `Cc1nc2c(F)c(-c3cccc(Cl)c3Cl)c(CCC#N)cc2c2c1cc([C@H]1[C@H]3C[C@H](C[C@@H]3Oc3cccnc3)N1C(=O)C1CC1)n2[C@H]1[C@H]2CN[C@@H]1C2` (atropisomer, axis not shown; (Ra)) [Example 5, 3-((Ra)-1-((1R,4R,5S)-2-Azabicyclo[2.1.1]hexan-5-yl)-2-((1R,3R,4R,5S)-2-(cyclopropanecarbonyl)-5-(pyridin-3-yloxy)-2-azabicyclo[2.2.1]heptan-3-yl)-7-(2,3-dichlorophenyl)-6-fluoro-4-methyl-1H-pyrrolo[3,2-c]quinolin-8-yl)propanenitrile], the IC50 in assay [1] and in assay [2] was ≤ 100 nM each time.
Take `Cc1nc2c(F)c(-c3cccc(Cl)c3Cl)c(CCC#N)cc2c2c1cc([C@H]1[C@H]3C[C@H](C[C@@H]3Oc3cccnc3)N1C(=O)C1CC1)n2C1[C@H]2CN[C@@H]1C2` (stereo partly drawn) [Example 27, 3-(1-((1R,4R)-2-azabicyclo[2.1.1]hexan-5-yl)-2-((1R,3R,4R,5S)-2-(cyclopropanecarbonyl)-5-(pyridin-3-yloxy)-2-azabicyclo[2.2.1]heptan-3-yl)-7-(2,3-dichlorophenyl)-6-fluoro-4-methyl-1H-pyrrolo[3,2-c]quinolin-8-yl)propanenitrile]: the IC50 in assay [1] and in assay [2] was ≤ 100 nM each time.
For `C[C@@H](O)c1nc2c(F)c(-c3cccc(Cl)c3Cl)c(CCC#N)cc2c2c1cc([C@H]1[C@H]3C[C@H](C[C@@H]3F)N1C(=O)C1(F)CC1)n2[C@H]1[C@H]2CN[C@@H]1C2` (atropisomer, axis not shown) [Example 32, 3-((R)-1-((1R,4R,5S)-2-azabicyclo[2.1.1]hexan-5-yl)-7-(2,3-dichlorophenyl)-6-fluoro-2-((1R,3R,4R,5S)-5-fluoro-2-(1-fluorocyclopropane-1-carbonyl)-2-azabicyclo[2.2.1]heptan-3-yl)-4-((R)-1-hydroxyethyl)-1H-pyrrolo[3,2-c]quinolin-8-yl)propanenitrile], the 50% inhibitory concentration (IC50) in assay [1] and in assay [2] was ≤ 100 nM throughout.
With `C[C@@H](O)c1nc2c(F)c(-c3cccc(Cl)c3Cl)c(CCC#N)cc2c2c1cc([C@H]1[C@H]3C[C@H](C[C@@H]3OC3CC3)N1C(=O)C1(F)CC1)n2[C@H]1[C@H]2CN[C@@H]1C2` (single isomer, unassigned) [Example 38], the IC50 in assay [1] and in assay [2] was ≤ 100 nM each time.
Take `Cc1nc2c(F)c(-c3cccc(Cl)c3Cl)c(CCC#N)cc2c2c1cc([C@H]1[C@H]3C[C@H](C[C@H]3F)N1C(=O)C1CC1)n2C1[C@H]2CN[C@@H]1C2` (stereo partly drawn) [Example 17, 3-(1-((1R,4R)-2-azabicyclo[2.1.1]hexan-5-yl)-2-((1R,3R,4R,5R)-2-(cyclopropanecarbonyl)-5-fluoro-2-azabicyclo[2.2.1]heptan-3-yl)-7-(2,3-dichlorophenyl)-6-fluoro-4-methyl-1H-pyrrolo[3,2-c]quinolin-8-yl)propanenitrile]: the IC50 in assay [1] and in assay [2] was ≤ 100 nM in each case.
For `[2H]C([2H])([2H])O[C@H]1C[C@H]2C[C@@H]1[C@H](c1cc3c(C)nc4c(F)c(-c5cccc(Cl)c5Cl)c(CCC#N)cc4c3n1[C@H]1[C@H]3CN[C@@H]1C3)N2C(=O)C1CC1` (atropisomer, axis not shown; (Ra)) [Example 4, 3-((Ra)-1-((1R,4R,5S)-2-Azabicyclo[2.1.1]hexan-5-yl)-2-((1R,3R,4R,5S)-2-(cyclopropanecarbonyl)-5-(methoxy-d3)-2-azabicyclo[2.2.1]heptan-3-yl)-7-(2,3-dichlorophenyl)-6-fluoro-4-methyl-1H-pyrrolo[3,2-c]quinolin-8-yl)propanenitrile], the IC50 in assay [1] and in assay [2] was ≤ 100 nM in each case.
Turning to `Cc1nc2c(F)c(-c3cccc(Cl)c3Cl)c(CCC#N)cc2c2c1cc([C@H]1[C@H]3C[C@H](C[C@@H]3F)N1C(=O)C1CC1)n2C1[C@H]2CN[C@@H]1C2` (stereo partly drawn) [Example 20, 3-(1-((1R,4R)-2-azabicyclo[2.1.1]hexan-5-yl)-2-((1R,3R,4R,5S)-2-(cyclopropanecarbonyl)-5-fluoro-2-azabicyclo[2.2.1]heptan-3-yl)-7-(2,3-dichlorophenyl)-6-fluoro-4-methyl-1H-pyrrolo[3,2-c]quinolin-8-yl)propanenitrile], the IC50 in assay [1] and in assay [2] was ≤ 100 nM each time.
As for `COC(=O)N1[C@@H]2C[C@@H]([C@@H](OC(F)F)C2)[C@@H]1c1cc2c(C)nc3c(F)c(-c4cccc(Cl)c4Cl)c(CCC#N)cc3c2n1[C@H]1[C@H]2CN[C@@H]1C2` (atropisomer, axis not shown; (Ra)) [Example 39, Methyl (1R,3R,4R,5S)-3-((Ra)-1-((1R,4R,5S)-2-azabicyclo[2.1.1]hexan-5-yl)-8-(2-cyanoethyl)-7-(2,3-dichlorophenyl)-6-fluoro-4-methyl-1H-pyrrolo[3,2-c]quinolin-2-yl)-5-(difluoromethoxy)-2-azabicyclo[2.2.1]heptane-2-carboxylate], the IC50 in assay [1] and in assay [2] was ≤ 100 nM each time.
`Cc1nc2c(F)c(-c3cccc(Cl)c3Cl)c(CCC#N)cc2c2c1cc([C@H]1[C@H]3CC[C@H](C3)N1C(=O)C1CC1)n2C1C2CNC1C2` (stereo partly drawn) [Example 25, 3-(1-(2-azabicyclo[2.1.1]hexan-5-yl)-2-((1R,3R,4S)-2-(cyclopropanecarbonyl)-2-azabicyclo[2.2.1]heptan-3-yl)-7-(2,3-dichlorophenyl)-6-fluoro-4-methyl-1H-pyrrolo[3,2-c]quinolin-8-yl)propanenitrile]: the values for the 50% inhibitory concentration (IC50) in assay [1] and in assay [2] were 1000 to 5000 nM and 5000 to 10000 nM, respectively.
The corresponding values for `Cc1nc2c(F)c(-c3cccc(Cl)c3Cl)c(CCC#N)cc2c2c1cc([C@H]1[C@H]3C[C@H](C[C@@H]3C(F)F)N1C(=O)C1(F)CC1)n2[C@H]1[C@H]2CN[C@@H]1C2` (atropisomer, axis not shown; (Ra)) [Example 44, 3-((Ra)-1-((1R,4R,5S)-2-Azabicyclo[2.1.1]hexan-5-yl)-7-(2,3-dichlorophenyl)-2-((1R,3R,4S,5S)-5-(difluoromethyl)-2-(1-fluorocyclopropane-1-carbonyl)-2-azabicyclo[2.2.1]heptan-3-yl)-6-fluoro-4-methyl-1H-pyrrolo[3,2-c]quinolin-8-yl)propanenitrile] are ≤ 100 nM and ≤ 100 nM.
